Results as given in US20190313638A1, “ACTIVE COMPOUND COMBINATIONS” (priority 2016, published 2019).

Experiment: Log P by HPLC on reversed phase columns (EEC directive 79/831 Annex V.A8)
Assay type: physicochemical
Protocol: Measurement of Log P values was performed according to EEC directive 79/831 Annex V.A8 by HPLC (High Performance Liquid Chromatography) on reversed phase columns with the following methods:
Calibration was done with straight-chain alkan2-ones (with 3 to 16 carbon atoms) with known Log P values (measurement of Log P values using retention times with linear interpolation between successive alkanones). Lambda-max-values were determined using UV-spectra from 200 nm to 400 nm and the peak values of the chromatographic signals.

- chromatographic logP ([a] LC-UV, acidic range, 0.1% formic acid in water and acetonitrile as eluent): 4.38
- chromatographic logP ([b] LC-UV, neutral range, 0.001 molar ammonium acetate solution in water and acetonitrile as eluent): 4.33
SMILES: CCN(C)/C=N/c1cc(C)c(Oc2ccccc2)cc1Br [Compound (I-4), N′-(2-bromo-5-methyl-4-phenoxyphenyl)-N-ethyl-N-methylimidoformamide]
